According to paper PMC4045308 (Investigational New Drugs, 2013):
Several values for one entry are separate records, joined by “and”; a condition that tells them apart may be missing. Equal entries are not always repeated. Where two headings read alike, the source gives them in different places. Marks after values point to notes of the source that are not given here.

Assays:
[1] = in vivo
[2] = twice-daily (BID), 7-day schedule in 21-day cycles, solid tumors; cited from earlier work
[3] = test system: multiple myeloma (MM) cells; conditions: in vitro; cited from earlier work
[4] = test system: advanced heme-lymphatic malignancies (MM, NHL, CLL); assay: phase I study: antitumor response; assay type: in vivo, patients
Experimental: Response was evaluated according to the International Working Group criteria for patients with lymphoma, the International Myeloma Working Group uniform response criteria for patients with MM [28], and the International Workshop on CLL guidelines.

mantle cell lymphoma = conditions: cited from earlier work
[5] = phase I study: plasma pharmacokinetics; assay type: in vivo, patients; conditions: for AUC(0-t) / Tmax / half-life: human, plasma, oral; for AUC(0-t): read-out: Geometric mean AUC0–tlast (CV, %); for Tmax: read-out: Median Tmax (range)
Excerpt: PK parameters included: area under the plasma concentration versus time curve, maximum plasma concentration, time to maximum plasma concentration (Tmax), terminal half-life (t1/2), accumulation ratio (Rac), and peak/trough ratio. Secondary endpoints were response rate, duration of response, and evaluation of banked tumor tissue samples for AAK protein expression and gene amplification.
Plasma samples were collected in cycle 1 at various time points on the first day (day 1) and last day (day 7, ECT 7-day schedule; day 14, PIC or ECT 14-day schedules; day 21, PIC 21-day schedule) of treatment. PK parameters were calculated by non-compartmental analysis using WinNonlin software (v5.2.1, Pharsight Corporation, Cary, NC).

[6] = test system: aggressive B- and T-cell NHL; conditions: 50 mg BID, cited from earlier work
PTCL cell lines = conditions: cited from earlier work
Aurora B kinase = conditions: cell-based assays; cited from earlier work
[7] = phase I study: DLTs and MTD
Experimental: Dosing schedules are summarized in Supplementary Fig. S1 (online only). The PIC formulation starting dose was 25 or 35 mg/day. […] For the ECT formulation, the starting dose was 40 mg/day QD for 14 days followed by 14 days’ rest in 28-day cycles.
If 2 of the first 3–6 patients experienced DLTs at a given dose level, dose escalation was delayed while the available safety/clinical data were assessed and a decision made on how to proceed with a modified dose or schedule. […] The use of myeloid growth factors (G-CSF or GM-CSF) or erythropoiesis-stimulating agents was permitted after the DLT evaluation period was completed (cycle 1) and on a case-by-case basis after cycle 2. Treatment continued for up to 12 months, or until disease progression or unacceptable toxicity, with the possibility of treatment extension beyond 12 months if clinical benefit was evident and toxicities were manageable.

AAK [8] = conditions: read-out: inhibition constant (Ki); cited from earlier work
xenograft MM model = conditions: cited from earlier work
[9] = phase I study: adverse events (NCI-CTCAE v3.0)
[10] = cited from earlier work
AAK [11] = conditions: cell-based assays; cited from earlier work
[12] = 30 mg, ECT 30 mg BID, 7-day schedule, Day 1, first dose, N 3
[13] = 30 mg, ECT 30 mg BID, 7-day schedule, Day 7, N 3
[14] = 40 mg, ECT 40 mg BID, 7-day schedule, Day 1, first dose, N 9
[15] = 40 mg, ECT 40 mg BID, 7-day schedule, Day 7, N 8
[16] = 50 mg, ECT 50 mg BID, 7-day schedule, Day 7, N 7

COc1cc(Nc2ncc3c(n2)-c2ccc(Cl)cc2C(c2c(F)cccc2OC)=NC3)ccc1C(=O)O [MLN8237, alisertib]
on-study deaths considered treatment-related [1]: none | maximum tolerated dose (MTD) [2]: 50 mg | effect on MM cells [3]: mitotic spindle abnormalities, mitotic accumulation, and apoptosis | duration of stable disease ([4]; 13 patients with SD): […] | patients achieving partial response (PR) ([4]; 47 response-evaluable patients): 13% | patients with partial response (PR) ([4]; 47 response-evaluable patients): 6 patients | patients discontinued due to progressive disease ([4]; N = 58): 64% | tumor growth (mantle cell lymphoma): inhibit tumor growth | Geometric mean CLss/F (CV, %) ([5]; ECT 30 mg BID, 7-day schedule, Day 7, N 3): 3.7 (0.7) L/h | Geometric mean CLss/F (CV, %) ([5]; ECT 40 mg BID, 7-day schedule, Day 7, n=7): 4.4 (1.9) ^† L/h | Geometric mean CLss/F (CV, %) ([5]; ECT 50 mg BID, 7-day schedule, Day 7, N 7): 6.7 (5.6) L/h | Mean CLss/F ([5]; all formulations, CV 69 %, n = 42): 4.8 L/h | AUC(0-t) [5, 12]: 5.52 µM·h | Tmax [5, 12]: 2 h | AUC(0-t) [5, 13]: 16 µM·h | Tmax [5, 13]: 2 h | half-life ([5]; 30 mg, ECT 30 mg BID, 7-day schedule, Day 7, n=1, read-out: Mean t1/2 (sd) (converted)): 13.3 h | AUC(0-t) [5, 14]: 7.09 µM·h | Tmax [5, 14]: 2.2 h | AUC(0-t) [5, 15]: 18.6 µM·h | Tmax [5, 15]: 2 h | half-life ([5]; 40 mg, ECT 40 mg BID, 7-day schedule, Day 7, n=4, read-out: Mean t1/2 (sd) (converted)): 19.9 h | Tmax ([5]; 50 mg, ECT 50 mg BID, 7-day schedule, Day 1, first dose, N 10): 2 h | AUC(0-t) ([5]; 50 mg, ECT 50 mg BID, 7-day schedule, Day 1, first dose, n=9): 9.73 µM·h | AUC(0-t) [5, 16]: 17.9 µM·h | Tmax [5, 16]: 2 h | half-life ([5]; 50 mg, ECT 50 mg BID, 7-day schedule, Day 7, n=5, read-out: Mean t1/2 (sd) (converted)): 18.4 h | half-life ([5]; multiple-dose administration, PIC and ECT, read-out: overall mean steady-state t1/2 (terminal half-life) (converted)): ~19 h | half-life ([5]; multiple-dose administration, PIC and ECT, read-out: steady-state t1/2, range): 10 to 43 h | CR ([6]; 48 treated patients): 10% | PR ([6]; 48 treated patients): 17% | overall response rate ([6]; 48 treated patients): 27% | patients achieving SD ([6]; 48 treated patients): 33% | patients with T-cell lymphoma who had a response [6]: 4/8 | effect on PTCL cell lines (PTCL cell lines): induces endo-reduplication and apoptosis | IC50 (Aurora B kinase): […] | MTD ([7]; ECT 7-day schedule, BID): 50 mg | MTD ([7]; PIC 14-day schedule, QD): 45 mg | recommended phase II dose ([7]; human, in vivo, 7 days): 50 mg | Ki (AAK [8]): 0.43 nM | overall survival (xenograft MM model; P = 0.0044): significantly increased | tumor burden (xenograft MM model; P = 0.007): significantly reduced | patients reporting drug-related AEs ([9]; N = 58): 90% | grade 3 or higher febrile neutropenia, frequency ([9]; all cohorts): 9% | grade ≥3 drug-related anemia, patients ([9]; all cohorts, N = 58): 19% | grade ≥3 drug-related leukopenia, patients ([9]; all cohorts, N = 58): 19% | grade ≥3 drug-related neutropenia, patients ([9]; all cohorts, N = 58): 45% | grade ≥3 drug-related thrombocytopenia, patients ([9]; all cohorts, N = 58): 28% | Alopecia, drug-related AE, All grades ([9]; all doses and schedules): 15 (26) n (%) | Anemia, drug-related AE, All grades ([9]; all doses and schedules): 19 (33) n (%) | Anemia, drug-related AE, Grade ≥3 ([9]; all doses and schedules): 11 (19) n (%) | Decreased WBC count, drug-related AE, All grades ([9]; all doses and schedules): 5 (9) n (%) | Decreased WBC count, drug-related AE, Grade ≥3 ([9]; all doses and schedules): 3 (5) n (%) | Diarrhea, drug-related AE, All grades ([9]; all doses and schedules): 20 (34) n (%) | Diarrhea, drug-related AE, Grade ≥3 ([9]; all doses and schedules): 1 (2) n (%) | Fatigue, drug-related AE, All grades ([9]; all doses and schedules): 15 (26) n (%) | Fatigue, drug-related AE, Grade ≥3 ([9]; all doses and schedules): 2 (3) n (%) | Febrile neutropenia, drug-related AE, All grades ([9]; all doses and schedules): 5 (9) n (%) | Febrile neutropenia, drug-related AE, Grade ≥3 ([9]; all doses and schedules): 5 (9) n (%) | Leukopenia, drug-related AE, All grades ([9]; all doses and schedules): 13 (22) n (%) | Leukopenia, drug-related AE, Grade ≥3 ([9]; all doses and schedules): 11 (19) n (%) | Lymphopenia, drug-related AE, All grades ([9]; all doses and schedules): 8 (14) n (%) | Lymphopenia, drug-related AE, Grade ≥3 ([9]; all doses and schedules): 4 (7) n (%) | Nausea, drug-related AE, All grades ([9]; all doses and schedules): 12 (21) n (%) | Neutropenia, drug-related AE, All grades ([9]; all doses and schedules): 33 (57) n (%) | Neutropenia, drug-related AE, Grade ≥3 ([9]; all doses and schedules): 26 (45) n (%) | Somnolence, drug-related AE, All grades ([9]; all doses and schedules): 6 (10) n (%) | Stomatitis, drug-related AE, All grades ([9]; all doses and schedules): 7 (12) n (%) | Stomatitis, drug-related AE, Grade ≥3 ([9]; all doses and schedules): 1 (2) n (%) | Thrombocytopenia, drug-related AE, All grades ([9]; all doses and schedules): 24 (41) n (%) | Thrombocytopenia, drug-related AE, Grade ≥3 ([9]; all doses and schedules): 16 (28) n (%) | Vomiting, drug-related AE, All grades ([9]; all doses and schedules): 8 (14) n (%) | On-study deaths ([9]; during treatment or within 30 days of last dose): 6 (10 %) n (%) and 6 (10) n (%) | discontinued treatment due to drug-related bullous dermatitis ([9]; in vivo): 1 n | discontinued treatment due to drug-related confusion ([9]; in vivo): 1 n | discontinued treatment due to drug-related thrombocytopenia ([9]; in vivo): 4 n | tolerability ([9]; patients with advanced heme-lymphatic malignancies): generally well tolerated | Any AE resulting in discontinuation ([9]; safety population): 9 (16 %) n (%) and 9 (16) n (%) | Any drug-related AE ([9]; safety population): 52 (90) n (%) | Any drug-related grade ≥3 AE ([9]; safety population): 35 (60 %) n (%) and 35 (60) n (%) | Any treatment-emergent AE ([9]; safety population): 58 (100) n (%) | Any treatment-emergent grade ≥3 AE ([9]; safety population): 46 (79) n (%) | Any treatment-emergent serious AE ([9]; safety population): 28 (48) n (%) | aqueous solubility [10]: low | IC50 (AAK [11]): […]
